# Where a SMILES comes first, the peptide text is derived from it. The star is where a group is joined. Cbz = O=C(OCc1ccccc1)*
# Experiments:
# C57BL/6N male mice = test: Glucose deprivation by 2-DG injection in mice; format: in vivo, mouse
# Description: All animal experiments were permitted by the Veterinary office of the Canton of Zurich. Both female and male mice were used in the experiments, and they were housed 2-5 littermates per cage in ventilated cages at standard housing conditions (22°C, 12 h reversed light/dark cycle, dark phase starting at 7 am) with normal chow diet (18% proteins, 4.5% fibers, 4.5% fat, 6.3% ashes, Provimi Kliba SA) and water. Health status of all the mouse lines were monitored regularly based on FELASA guidelines. 8-10 weeks old C57BL/6N male mice were fasted for 24 h or injected with 2-DG (2 g/kg BW) to induce glucose deprivation for different durations. Female ROSA26-LSL-spCas9 mice (The Jackson Lab strain) were intravenously injected with AAV8-U6-Pi4kb gRNAs-TBG-Cre, AAV8-U6-Sacm1l gRNAs-TBG-Cre, AAV8-U6-Cu/7 gRNAs-TBG-Cre and AAV8-U6-Fbxw8 gRNAs-TBG-Cre virus pools to express six gRNAs targeting individual gene and CAS9 in the liver at a dose of 3×10^11 genome copies/mouse. Two weeks later, livers were harvested for protein and RNA extraction after 6 hours fasting. To determine liver TG levels under NCD feeding condition, 4 weeks after AAV administration livers were harvested after 6 hours fasting. Also 4 weeks after AAV administration, the liver specific Cul7&Fbxw8 double knockout mice were injected with 2-DG (2 g/kg BW) to induce 1 hour glucose deprivation prior to liver harvesting for protein extraction.
# Adipose depots, liver pieces, differentiated iBAs, HepG2, HEK293T and HEK293-AAV cell types were homogenized in RIPA buffer (50 mM Tris-HCl pH 7.4, 150 mM NaCl, 2 mM EDTA, 1.0% Triton X100, 0.5% sodium deoxycholate) with protease inhibitors (Complete, Roche) and phosphatase inhibitors (Halt phosphatase inhibitor cocktail, ThermoFisher). The homogenates were centrifuged at 12,000×g for 10 min at 4°C to remove debris and collect whole cell extract (WCE). The concentration of WCE was determined by DC Protein Assay (Bio-Rad). After boiling the sample with Lämmeli buffer at 95°C for 5 min, equal amount of proteins was loaded and separated on 12% SDS-PAGE. The proteins were transferred to nitrocellulose membrane and blotted by ATGL (1:1000, Cell Signaling), CGI-58 (1:1000, Proteintech), phospho-HSL(Ser660) (1:1000, Cell Signaling), PLIN1 (1:1000, Cell Signaling), HSL (1:1000, Cell Signaling), γ-tubulin (1:10000, Sigma), FLAG (1:10000, Sigma; 1:1000, Cell Signaling), MGL (1:1000, Abcam), HA (1:1000, Cell signaling), FBXW8 (1:100, Santa Cruz; 1:1000, Sigma), CUL7 (1:100, Santa Cruz), HSP90 (1:1000, Cell Signaling), K48 polyubiquitin (1:1000, Cell signaling), PI4KB (1:1000, Sigma), SACM1L (1:1000, Sigma), AKT1 (1:1000, Cell Signaling), phospho-AKT1(Ser473) (1:1000, Cell Signaling), TGN46 (1:1000, Abcam), MAOA (1:1000, Abcam), PLIN2 (1:1000, Abcam), PMP70 (1:10000, Sigma), Calnexin (1:1000, Cell Signaling), ARF1 (1:1000, Invitrogen), GAPDH (1:1000, Cell Signaling), RAB7 (1:1000, Cell Signaling), alpha 1 Sodium Potassium ATPase (1:1000, Abcam), Cleaved Caspase-3 (1:1000, Cell Signaling), phospho-AMPKα (Thr172) (1:1000, Cell Signaling), AMPKα (1:1000, Cell Signaling) and GM130 (1:1000, Proteintech). The primay antibody signal was visualized by HRP-conjugated secondary antibodies (1:5000, Millipore) and the ImageQuant system (GE Healthcare Life Sciences).
# For mouse insulin measurement, plasma was collected at different timepoints after 2-DG administration in wild type mice. 5 µl plasma sample was used to determine insulin levels via Ultra-sensitive mouse insulin ELISA kit (Crystal Chem, Cat# 90080) according to the manufacturer's protocol. The absorbance was measured via Synergy Gen5 Platereader at 450/630 nm. 2 µl plasma sample was used to determine glucose levels via Glucose Assay Kit (Sigma, MAK263) according to the manufacturer's protocol. The absorbance was read at 570 nm in Synergy Gen5 Platereader.
# Plasma collected from mice under different conditions was used to determine levels of lipolysis and liver injury. […]
# ATGL [1] = test: ATGL in HepG2 cells after 2-DG treatment; format: cell-based, human
# Description: HepG2 cell type was cultured in RPMI medium with 10% FBS and 1% Pen/Strep on collagen-coated plates. Lipofectamine RNAiMAX reagent mediated siRNA (100 nM) was delivered to cells at the suspended state for 48 h. Different from HEK cells, it is not necessary to induce LDs via OA treatment in that there exist LDs in the HepG2 cell type at normal culture medium. The inventors treated HepG2 cells with 10 µM PF04620110 (DGAT1 inhibitor, Sigma) & PF-06424439 (DGAT2 inhibitor, Sigma) for 48 hours or with 5 µg/mL BFA (B5936, Sigma) for 6 hours to deplete LDs and intact Golgi in the HepG2 cell type respectively before glucose deprivation. […]
# Total RNA was extracted from adipose depots, liver or in vitro cell cultures via Trizol reagent (Invitrogen) according to the manufacturer's instructions. […] Quantitative PCR was performed using KAPA SYBR FAST Universal kit (Roche, KK4618) on ViiA7 (Applied Biosystems) and the relative transcript levels were normalized to […] expression via ΔΔCt method. […]
# (§1) Adipose depots, liver pieces, differentiated iBAs, HepG2, HEK293T and HEK293-AAV cell types were homogenized in RIPA buffer (50 mM Tris-HCl pH 7.4, 150 mM NaCl, 2 mM EDTA, 1.0% Triton X100, 0.5% sodium deoxycholate) with protease inhibitors (Complete, Roche) and phosphatase inhibitors (Halt phosphatase inhibitor cocktail, ThermoFisher). […] The concentration of WCE was determined by DC Protein Assay (Bio-Rad). […]
# ATGL [2] = test: ATGL response to glucose deprivation in HepG2 cells after BFA treatment; format: cell-based, human; conditions: HepG2, 5 µg/mL BFA for 6 hours before glucose deprivation
# Description: HepG2 cell type was cultured in RPMI medium with 10% FBS and 1% Pen/Strep on collagen-coated plates. Lipofectamine RNAiMAX reagent mediated siRNA (100 nM) was delivered to cells at the suspended state for 48 h. Different from HEK cells, it is not necessary to induce LDs via OA treatment in that there exist LDs in the HepG2 cell type at normal culture medium. The inventors treated HepG2 cells with 10 µM PF04620110 (DGAT1 inhibitor, Sigma) & PF-06424439 (DGAT2 inhibitor, Sigma) for 48 hours or with 5 µg/mL BFA (B5936, Sigma) for 6 hours to deplete LDs and intact Golgi in the HepG2 cell type respectively before glucose deprivation. To deprive glucose in the HepG2 cell type, we either added 2-DG at indicated concentrations to the culture medium or refresh cells with RPMI medium containing different glucose concentrations prepared from the same RPMI medium (Gibco, 11879020).
# as §1
# ATGL [3] = test: Block of proteasome mediated degradation, cellular ATGL protein; format: cell-based; conditions: proteasome blocked; Chloroquine (autophagy) had no such effect
# [4] = only 1 hour after 2-DG administration
smiles,measurement,setting,value
"O=CC[C@@H](O)[C@H](O)[C@H](O)CO [2-DG, 2-Deoxy-D-glucose]",lipolysis (plasma FFA levels),"C57BL/6N male mice; 2-DG 2 g/kg BW, 1 h, 6 h, 12 h (Fig. 1c)",significantly induced
same,ATGL levels in livers of wild-type mice,"C57BL/6N male mice; 2-DG for 1 hour, not in Cul7 and Fbxw8 double knockout (Fig. 6c)",upregulation
same,ATGL protein levels in the liver and iBAT,C57BL/6N male mice; 1 hour after 2-DG,increased
same,"ATGL protein levels in the liver, iBAT, iWAT and gWAT","C57BL/6N male mice; longer glucose deprivation (6 h, 12 h after 2-DG)",further accumulation
same,HSL phosphorylation in white adipose tissues,C57BL/6N male mice; [4],upregulation
same,plasma insulin levels,C57BL/6N male mice; [4],reduction
same,ATGL protein abundance,"ATGL [1]; HepG2, 50 mM 2-DG (Fig. 2b)",strongly induced
same,ATGL transcript levels,"ATGL [1]; HepG2, 2-DG treatment",without changing
"C[C@H]1CCC/C=C/[C@@H]2C[C@H](O)C[C@H]2[C@H](O)/C=C/C(=O)O1 [BFA, Brefeldin A]",intracellular ATGL levels upon glucose deprivation,ATGL [2],failed to upregulate
CC(C)C[C@@H](C=O)NC(=O)[C@H](CC(C)C)NC(=O)[C@H](CC(C)C)NC(=O)OCc1ccccc1 [MG132] (Cbz-Leu-Leu-Leu-aldehyde),cellular ATGL protein,ATGL [3],accumulation

# Reference: patent EP4623912A1, “A METHOD FOR DEFATTENING A STEATOTIC LIVER EX VIVO” (ETH Zurich, priority 2024, dated 2025)
